Measured values taken from patent US7658941B2, “Warming and nonirritating lubricant compositions and method of comparing irritation” (Johnson & Johnson Consumer Companies, Inc., priority 2002, dated 2010).

Legend:
[1] = Generation of warmth by mixing equal quantity with water; format: physicochemical; settings: for Actual Temperature (° F.) / Rise in Temperature (° F.) (Expected Minus Actual): 20 ml mixed with 20 ml of water for two minutes
Experimental: The temperature of the product and that of water were recorded before water was added to the product. After the addition of water the mixture was mixed for two minutes and the actual temperature was recorded. Glycerin, Propylene Glycol and Honey are the ingredients in Composition 1. It is clear from Table 1 that when mixed with water the temperature of the mixture rises by 9.0° F for Glycerin, 13.5° F. for Propylene Glycol, 17.0° F. for Polyethylene Glycol 400 and 12.5° F. for composition Example 1 of this invention.
Calculated Rise in Temperature: In order to determine the expected rise in temperature from each composition, the percentage of each component in such composition was multiplied by the temperature increase generated by such component alone to obtain its expected contribution to the temperature increase. These values were added together to calculate the total expected temperature rise. These values were then compared with the actual temperature rise generated by each composition. For example, the calculated rise in temperature generated by the “K-Y Warming®”, composition in the table above was found as follows and compared with the actual temperature rise to determine the unexpectedly higher generation of warmth of the composition:
Compositions 10, 11 and 12 were tested in accordance with the following procedure to determine the extent to which said compositions generate warmth upon mixture with water. Data was generated by mixing 20 ml of each composition with 20 ml of water. The temperature of the composition and that of water were recorded before water was added to the composition After the addition of water the contents were mixed for two minutes and the actual temperature was recorded.

[2] = tested on: epithelial cells derived from human skin; format: cell-based
Experimental: The method designated as EpiDerm™ Skin Model assay uses the epithelial cells derived from human skin as target cells and is commercially available from the MatTek Corporation. […] The test materials are applied directly to the epithelial cell culture surface. […] The toxicity of the test material is evaluated on the basis of relative tissue viability vs time. The actual Tissue Viability is determined by NAD(P)H-dependent microsomal enzyme reduction of MTT in control and test article treated cultures. The negative control used in this assay was deionized water and the positive control was Triton X-100. The exposed cell cultures were incubated for 4, 8, 16 and 24 hours and assayed for reduction of MTT. […] Relative irritation in this assay is expressed by the percent survival rate of epiderm cells over a period of 24 hours. Products with higher relative survival rates are less toxic or less irritating while the ones with lower survival rates are more toxic or irritating.
The data is plotted as % Viable Cells vs the Exposure Time ranging from 4 to 24 hours.

Compound	Actual Temperature (° F.) [1]	Rise in Temperature (° F.) (Expected Minus Actual) [1]	% viable cells [2]	expected contribution of component to the temperature increase ([1]; in Composition 10)	expected contribution of component to the temperature increase ([1]; in K-Y Warming (Composition 1))
CCCCCCCCCCCCCC(=O)OC(C)C [Isopropyl Myristate]	75.2 ° F.	0.7 ° F.	–	–	–
Triton X-100	–	–	22.4%	–	–
CC(O)CO (stereo not drawn) [Propylene Glycol]	85.2 ° F.	13.5 ° F.	–	5.13	6.75
Polysorbate 60	83.1 ° F.	10.6 ° F.	–	–	–
OCC(O)CO [Glycerin]	79.0 ° F.	9.0 ° F.	–	–	4.05
